Calls of active or inactive are those of the source. No cut-off for these calls is given here.
Legend:
[1] = Lipophilicity, logP of compound; format: physicochemical; details: octanol/water
[2] = tested on: Plasmodium yoelii nigeriensis; experiment: (§1) Antimalarial activity against blood stage multidrug-resistant Plasmodium yoelii nigeriensis infected swiss mouse assessed as protection against Plasmodium yoelii nigeriensis infection at 48 mg/kg, po administered once daily for 3 days measured on day 4 and subsequently twice a week up to 28 days by microscopy; format: functional
[3] = tested on: Plasmodium yoelii nigeriensis; experiment: Antimalarial activity against blood stage multidrug-resistant Plasmodium yoelii nigeriensis infected swiss mouse assessed as suppression of parasitaemia at 48 mg/kg, po administered once daily for 3 days measured on day 4 by microscopic analysis relative to control; format: functional
[4] = tested on: Plasmodium yoelii nigeriensis; experiment: as §1, with “12” for “48”; format: functional
[5] = tested on: Plasmodium yoelii nigeriensis; experiment: Antimalarial activity against blood stage multidrug-resistant Plasmodium yoelii nigeriensis infected swiss mouse assessed as suppression of parasitaemia at 12 mg/kg, po administered once daily for 3 days measured on day 4 by microscopic analysis relative to control; format: functional
[6] = tested on: Plasmodium yoelii nigeriensis; experiment: Antimalarial activity against blood stage multidrug-resistant Plasmodium yoelii nigeriensis infected swiss mouse assessed as protection against Plasmodium yoelii nigeriensis infection at 12 mg/kg, po administered once daily for 3 days measured after 28 days by microscopy; format: functional, organism-based
[7] = tested on: Plasmodium yoelii nigeriensis; experiment: Antimalarial activity against blood stage multidrug-resistant Plasmodium yoelii nigeriensis infected swiss mouse assessed as protection […] at 24 mg/kg, po administered once daily for 3 days measured on day 4 and subsequently twice a week up to 28 days by microscopy; format: functional
[8] = tested on: Plasmodium yoelii nigeriensis; experiment: Antimalarial activity against blood stage multidrug-resistant Plasmodium yoelii nigeriensis infected swiss mouse assessed as protection […] at 24 mg/kg, po administered once daily for 3 days measured after 28 days by microscopy; format: functional, organism-based
[9] = tested on: Plasmodium yoelii nigeriensis; experiment: Antimalarial activity against blood stage multidrug-resistant Plasmodium yoelii nigeriensis infected swiss mouse assessed as suppression of parasitaemia at 24 mg/kg, po administered once daily for 3 days measured on day 4 by microscopic analysis relative to control; format: functional
[10] = tested on: Plasmodium yoelii nigeriensis; experiment: Antimalarial activity against blood stage multidrug-resistant Plasmodium yoelii nigeriensis infected swiss mouse assessed as protection against […] infection at 6 mg/kg, po administered once daily for 3 days measured after 28 days by microscopy; format: functional, organism-based
[11] = tested on: Plasmodium yoelii nigeriensis; experiment: Antimalarial activity against blood stage multidrug-resistant Plasmodium yoelii nigeriensis infected swiss mouse assessed as suppression of parasitaemia at 6 mg/kg, po administered once daily for 3 days measured on day 4 by microscopic analysis relative to control; format: functional
[12] = tested on: Plasmodium yoelii nigeriensis; experiment: Antimalarial activity against blood stage multidrug-resistant Plasmodium yoelii nigeriensis infected swiss mouse assessed as protection against […] infection at 6 mg/kg, po administered once daily for 3 days measured on day 4 and subsequently twice a week up to 28 days by microscopy; format: functional, organism-based

SMILES | logP [1] | Activity [2] [%] | inhibition in vivo at 48 mg/kg [3] [%] | Activity [4] | inhibition in vivo at 12 mg/kg [5] [%] | Activity [6] | Activity [7] | Activity [8] | inhibition in vivo at 24 mg/kg [9] [%] | Activity [10] | inhibition in vivo at 6 mg/kg [11] [%] | Activity [12]
C[C@H]1[C@H](OC(=O)CC(c2ccccc2)c2ccccc2)O[C@@H]2O[C@@]3(C)CC[C@H]4[C@H](C)CC[C@@H]1[C@@]24OO3 | 7.15 | 100 | 100 | inactive | 100 | inactive | 100% | inactive | 100 | – | – | –
C[C@H]1[C@H](OC(=O)CC(c2ccc(Cl)cc2)c2ccc(Cl)cc2)O[C@@H]2O[C@@]3(C)CC[C@H]4[C@H](C)CC[C@@H]1[C@@]24OO3 | 8.27 | 100 | 100 | inactive | 96 | inactive | 100% | inactive | 100 | – | – | –
CCCCCCC(=O)O[C@@H]1O[C@@H]2O[C@@]3(C)CC[C@H]4[C@H](C)CC[C@@H]([C@H]1C)[C@@]24OO3 | 5.7 | 100 | 100 | – | – | – | – | – | 100 | – | – | –
C[C@H]1[C@H](OC(=O)CCc2ccccc2)O[C@@H]2O[C@@]3(C)CC[C@H]4[C@H](C)CC[C@@H]1[C@@]24OO3 | 5.63 | 100 | 100 | – | – | – | – | – | 100 | – | – | –
C[C@H]1[C@H](OC(=O)C(c2ccccc2)c2ccccc2)O[C@@H]2O[C@@]3(C)CC[C@H]4[C@H](C)CC[C@@H]1[C@@]24OO3 | 6.97 | 100 | 100 | 100% | 100 | – | 100% | – | 100 | inactive | 100 | inactive
CC(=O)O[C@@H]1O[C@@H]2O[C@@]3(C)CC[C@H]4[C@H](C)CC[C@@H]([C@H]1C)[C@@]24OO3 | 3.37 | – | 100 | – | – | – | inactive | – | 99 | – | – | –
CCCCCC(=O)O[C@@H]1O[C@@H]2O[C@@]3(C)CC[C@H]4[C@H](C)CC[C@@H]([C@H]1C)[C@@]24OO3 | 5.28 | 100 | 100 | – | – | – | inactive | – | 100 | – | – | –
COc1ccc(C(CC(=O)O[C@@H]2O[C@@H]3O[C@@]4(C)CC[C@H]5[C@H](C)CC[C@@H]([C@H]2C)[C@@]35OO4)c2ccc(OC)cc2)cc1 | 6.9 | 100 | 100 | 80% | 100 | – | 100% | – | 100 | inactive | 100 | inactive
C[C@H]1[C@H](OC(=O)CC(c2ccc(F)cc2)c2ccc(F)cc2)O[C@@H]2O[C@@]3(C)CC[C@H]4[C@H](C)CC[C@@H]1[C@@]24OO3 | 7.47 | 100 | 100 | 80% | 100 | – | 100% | – | 100 | inactive | 100 | inactive
C[C@H]1[C@H](OC(=O)CC(c2ccc(Br)cc2)c2ccc(Br)cc2)O[C@@H]2O[C@@]3(C)CC[C@H]4[C@H](C)CC[C@@H]1[C@@]24OO3 | 8.81 | 100 | 100 | inactive | 100 | inactive | 100% | inactive | 100 | – | – | –

Reference: ChEMBL document CHEMBL3774322, “New orally active diphenylmethyl-based ester analogues of dihydroartemisinin: Synthesis and antimalarial assessment against multidrug-resistant Plasmodium yoelii nigeriensis in mice” (Bioorg Med Chem Lett, 2016)
